# Like-named read-outs stand apart in the source and are kept apart here.
# Key:
# [1] = target: Recombinant human AKR1C3 (Homo sapiens, UniProt P42330); assay: Activation by the aldoketo reductase AKR1C3; assay type: biochemical; conditions: 5 µM, 2 mM NADPH, 37 °C, up to 120 min; FIG. 2
# Method: Recombinant human AKR1C3 was diluted to 25 µg/mL in phosphate buffered saline (PBS), pH 7.4 (37 °C), containing 2 mM NADPH. TH2870 or progesterone (positive control) in 30% methanol/70% water was added to the reaction mixture at a final concentration of 5 µM and incubated at 37 °C for 120 minutes. At various times up to 120 min, 50 µL of the reaction mixture was taken and 200 µL acetonitrile containing propranolol as internal standard was added, vortex-mixed and centrifuged for 10 min. The resulting supernatant (5 µL) was injected into a LC/MS/MS for quantitation of % remaining TH 2870 and progesterone. The compounds were tested in duplicates.
# [2] = tested on: PLCPRF5; assay: In vitro human tumor cell line cytotoxicity assay; assay type: cell-based; conditions: for IC50: Homo sapiens
# [3] = tested on: C3A; assay: In vitro human tumor cell line cytotoxicity assay; assay type: cell-based; conditions: for IC50: Homo sapiens
# [4] = tested on: HCCC9810; assay: In vitro human tumor cell line cytotoxicity assay; assay type: cell-based; conditions: for IC50: Homo sapiens
# [5] = Acute toxicity study in monkeys, body weight; assay type: in vivo, Cynomolgus monkeys; parameters: unit not given here; conditions: 2 mg/kg IV infusion
# Method: (§1) TH 3423 and TH 3424 were tested in no naive monkeys (1 male and one female for each compound at 2 mg/kg) with 30-min intravenous infusion, TK sampling: on Day 1 and Day 15: 0.25, 0.5, 0.75, 1 and 2 hr post infusion initiation. Serum chemistry and hematology: pre-dose (Day 1), day 5, day 8 (pre-dose), day 15 (pre-dose), day 22 and day 28. Clinical observation: Daily during the study, total 35 days. Food consumption: Daily during the study, total 35 days. Bodyweight measurement: Twice weekly for five weeks.
# [6] = tested on: Vcap; assay: In vitro human tumor cell line cytotoxicity assay; assay type: cell-based; conditions: for IC50: Homo sapiens, VCaP
# [7] = tested on: HepG2; assay: In vitro human tumor cell line cytotoxicity assay; assay type: cell-based; conditions: for IC50: Homo sapiens
# [8] = tested on: SNU-387; assay: In vitro human tumor cell line cytotoxicity assay; assay type: cell-based; conditions: for IC50: Homo sapiens
# [9] = tested on: H460 cells; assay: In vitro proliferation assay, H460; assay type: cell-based; conditions: Homo sapiens, NCI-H460; 2 hrs exposure, wash, additional 70hrs, AlamarBlue; read-out: IC 50 in proliferation assay in H460 cells
# Method: In vitro proliferation data on the H460 […] human tumor cell line is reported above in the compound table. IC50 values are reported in micromolar and result from exposure of compound at various concentrations for 2 hrs followed by a wash step and addition of fresh media followed by growth and cell viability staining and comparison to a media only treated control.
# Specifically, exponentially growing cells were seeded at a density of 4 x 10^3 cells per well in a 96 well plate and incubated at 37°C in 5% CO2, 95% air and 100% relative humidity for 24 hours prior to addition of test compounds. Compounds were solubilized in 100% DMSO at 200 times the desired final test concentration. At the time of drug addition, compounds were further diluted to 4 times the desired final concentration with complete medium. Aliquots of 50 µl of compound at specified concentrations were added to microtiter wells already containing 150 µl of medium, resulting in the final drug concentration reported. After drug addition, the plates were incubated for an additional 2 hours at 37°C, 5% CO2, 95% air, and 100% relative humidity, then the drug was washed off and fresh medium was added and the plates were incubated for addition 70hrs at 37 °C, 5% CO2, 95% air and 100% relative humidity. At the end of this incubation, the viable cells were quantified using the AlamarBlue assay. The drug concentration resulting in growth inhibition of 50% (IC50) was calculated using Prism software (Irvine, CA), and the results were listed in the table.
# [10] = Pharmacokinetics (TK) after 30-min IV infusion in monkeys; assay type: in vivo, Cynomolgus monkeys; conditions: 2 mg/kg 30-min IV infusion; for MRT inf / clearance / half-life / Vd / concentration at 0.25 hr / concentration at 0.5 hr / concentration at 0.75 hr / concentration at 1 hr / concentration at 2 hr: cynomolgus monkey, plasma; for half-life: read-out: Terminal t1/2 (converted); for Vd: read-out: Vss
# Method: as §1
# [11] = tested on: LIXC012; assay: In vitro human tumor cell line cytotoxicity assay; assay type: cell-based; conditions: for IC50: Homo sapiens
# [12] = both sexes, mean, read-out: Plasma concentration, Mean
# [13] = female, read-out: Plasma concentration
# [14] = male, read-out: Plasma concentration
# Sequence of Recombinant human AKR1C3 (P42330 whole entry): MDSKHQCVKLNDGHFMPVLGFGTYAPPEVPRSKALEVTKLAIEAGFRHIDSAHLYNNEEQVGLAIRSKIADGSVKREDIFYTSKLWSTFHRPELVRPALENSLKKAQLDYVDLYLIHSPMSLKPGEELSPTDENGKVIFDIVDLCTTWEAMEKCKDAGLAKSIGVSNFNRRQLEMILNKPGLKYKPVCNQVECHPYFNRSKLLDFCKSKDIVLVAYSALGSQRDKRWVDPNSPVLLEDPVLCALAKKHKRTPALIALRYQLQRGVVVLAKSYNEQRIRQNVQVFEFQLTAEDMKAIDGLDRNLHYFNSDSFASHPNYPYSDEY
smiles,measurement,setting,value
"CC(=O)[C@H]1CC[C@H]2[C@@H]3CCC4=CC(=O)CC[C@]4(C)[C@H]3CC[C@]12C [Progesterone, reference compound]",disappearance of compound (% remaining) in the presence of AKR1C3,[1],reduced slowly
"C[C@@H](OP(=O)(N1CC1)N1CC1)c1ccc([N+](=O)[O-])c(Oc2cccc(C(=O)N(C)C)c2)c1 (single isomer, unassigned) [TH3423]",Max Inhibition%,[2],77.7%
same,Min Inhibition%,[2],-4.9%
same,IC50,"[2]; PLC-PRF-5, read-out: AbsIC50",207 nM
same,IC50,"[2]; PLC-PRF-5, read-out: RelIC50",156 nM
same,Max Inhibition%,[3],98.5%
same,Min Inhibition%,[3],5.4%
same,IC50,[3]; read-out: AbsIC50,11.7 nM
same,IC50,[3]; read-out: RelIC50,9.6 nM
same,Max Inhibition%,[4],93.7%
same,Min Inhibition%,[4],0.0%
same,IC50,[4]; read-out: AbsIC50,18.7 nM
same,IC50,[4]; read-out: RelIC50,16.8 nM
same,body weight,"[5]; Mean, Day 1",3.50
same,body weight,"[5]; Mean, Day 4",3.39
same,body weight,"[5]; Mean, Day 8",3.32
same,body weight,"[5]; Mean, Day 11",2.96
same,body weight,"[5]; female, Day 1",3.65
same,body weight,"[5]; female, Day 4",3.55
same,body weight,"[5]; female, Day 8",3.41
same,body weight,"[5]; female, Day 11",2.96
same,body weight,"[5]; male, Day 1",3.35
same,body weight,"[5]; male, Day 4",3.23
same,body weight,"[5]; male, Day 8",3.23
same,body weight,"[5]; male, Day 11",2.95
same,IC50,[6]; read-out: AbsIC50,21.6 nM
same,IC50,[6]; read-out: RelIC50,26.6 nM
same,Max Inhibition%,[6]; Vcap,101.0%
same,Min Inhibition%,[6]; Vcap,1.1%
same,Max Inhibition%,[7],99.5%
same,Min Inhibition%,[7],-7.2%
same,IC50,[7]; read-out: AbsIC50,18.7 nM
same,IC50,[7]; read-out: RelIC50,13.1 nM
same,Max Inhibition%,[8],99.8%
same,Min Inhibition%,[8],1.3%
same,IC50,[8]; read-out: AbsIC50,39.7 nM
same,IC50,[8]; read-out: RelIC50,46.3 nM
same,IC50,[9],5 nM
same,AUCINF,[10]; Mean,770 hr^∗ng/mL
same,AUClast,[10]; Mean,766 hr^∗ng/mL
same,MRT inf,"[10]; both sexes, Mean",12.2 min
same,clearance,"[10]; both sexes, Mean",43.3 mL/min/kg
same,half-life,"[10]; both sexes, Mean",7.74 min
same,Vd,"[10]; both sexes, Mean",0.527 L/kg
same,concentration at 0.25 hr,[10]; [12],1210 ng/mL
same,concentration at 0.5 hr,[10]; [12],1400 ng/mL
same,concentration at 0.75 hr,[10]; [12],336 ng/mL
same,concentration at 1 hr,[10]; [12],70 ng/mL
same,concentration at 2 hr,"[10]; both sexes, mean, 2 hr, read-out: Plasma concentration, Mean",1.03 ng/mL
same,concentration at 0.25 hr,[10]; [13],1320 ng/mL
same,concentration at 0.5 hr,[10]; [13],1370 ng/mL
same,concentration at 0.75 hr,[10]; [13],313 ng/mL
same,concentration at 1 hr,[10]; [13],55 ng/mL
same,MRT inf,[10]; female,10.8 min
same,clearance,[10]; female,43.5 mL/min/kg
same,half-life,[10]; female,6.48 min
same,Vd,[10]; female,0.469 L/kg
same,concentration at 0.25 hr,[10]; [14],1100 ng/mL
same,concentration at 0.5 hr,[10]; [14],1420 ng/mL
same,concentration at 0.75 hr,[10]; [14],359 ng/mL
same,concentration at 1 hr,[10]; [14],85 ng/mL
same,concentration at 2 hr,"[10]; male, 2 hr, read-out: Plasma concentration",1.03 ng/mL
same,MRT inf,[10]; male,13.6 min
same,clearance,[10]; male,43.2 mL/min/kg
same,half-life,[10]; male,9 min
same,Vd,[10]; male,0.584 L/kg
same,Plasma concentration,"[10]; female, 2 hr",BQL
same,AUCINF,[10]; female,766 hr^∗ng/mL
same,AUClast,[10]; female,758 hr^∗ng/mL
same,AUCINF,[10]; male,774 hr^∗ng/mL
same,AUClast,[10]; male,773 hr^∗ng/mL
same,Max Inhibition%,[11],84.8%
same,Min Inhibition%,[11],-1.1%
same,IC50,[11]; read-out: AbsIC50,16.9 nM
same,IC50,[11]; read-out: RelIC50,8.1 nM
